Among the test systems are M19-MEL melanoma; LXFL 529 NSCLC; DLD-1 colon; RXF-631 renal; DMS 273 small cell lung; KM20L2 colon; DMS 114 small cell lung; XF 498 CNS; MDA-N.
What all share (test): NCI-60 cell line screen, 48 h

Molecules are shown by their SMILES. “And” between values parts separate entries of the source, which are not always exact repeats. Equal entries are not always repeated.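 These data come from cells grown in 96-well plates and exposed to compound for 48 hours at five concentrations. GI50 marks 50% less growth. TGI: total growth inhibition.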

As to `CN(C)C(=S)/N=c1\ss/c(=N\S(=O)(=O)c2ccccc2)n1N(C)C`, the TGI in the assay with M19-MEL melanoma, in the assay on LXFL 529 NSCLC, in the assay with DLD-1 colon, in the assay on RXF-631 renal, with DMS 273 small cell lung and with KM20L2 colon was above 100 µM in each case. Further, the TGI with DMS 114 small cell lung worked out at 85.9 µM.
Turning to `COC1OC2COC(c3ccccc3)OC2C(O)C1Br` (stereo unspecified), the TGI in the assay with M19-MEL melanoma, with LXFL 529 NSCLC, with DLD-1 colon, in the assay with DMS 273 small cell lung and with XF 498 CNS was above 100 µM each time.
Consider `CC12Oc3ccc4ccccc4c3CC1Cc1c(ccc3ccccc13)O2` (stereo unspecified), for which the TGI in the assay with M19-MEL melanoma was above 100 µM; in the assay with LXFL 529 NSCLC, above 100 µM; with DLD-1 colon it was above 100 µM; in the assay with DMS 273 small cell lung, 74.9 µM; in the assay with KM20L2 colon, above 100 µM; with DMS 114 small cell lung, above 100 µM.
In the assay on MDA-N, `CC(Br)C(=O)Nc1ccc(C(=O)O)c(O)c1` (stereo unspecified) gave a TGI above 100 µM.
For the molecule `Cc1cccc(C(C)(C)C)c1NC(=O)CC1Sc2ccccc2NC1=O` (stereo unspecified), the TGI in the assay on M19-MEL melanoma, in the assay with LXFL 529 NSCLC, with DLD-1 colon, with RXF-631 renal, in the assay on DMS 273 small cell lung and in the assay on KM20L2 colon was above 100 µM in each case. Moreover, the TGI in the assay on DMS 114 small cell lung came to 83 µM.
Consider `NCCSCCc1ccccc1`, for which the TGI with MDA-N was above 100 µM.
In the assay with MDA-N, `CSc1cccc(NC(=O)OC2CCCCCCCCCCC2)c1` showed a TGI of 60.8 µM.
On the same count and under the same terms, in the case of `O=C(Nc1ccc(Cl)c(Cl)c1)OCCN1c2ccccc2Sc2ccccc21` it was above 10 µM.
For the molecule `Nc1n[nH]c(CCc2nc(N)n[nH]2)n1`, the TGI with M19-MEL melanoma, with LXFL 529 NSCLC, in the assay on DLD-1 colon, with RXF-631 renal, in the assay on DMS 273 small cell lung and in the assay with KM20L2 colon was above 100 µM each time. Further, the TGI with DMS 114 small cell lung was above 100 µM.
With `O=C1C=CC(CC(=O)c2ccc3ccccc3c2)O1` (stereo unspecified), the TGI was above 100 µM in the assay with M19-MEL melanoma; 32.3 µM in the assay on LXFL 529 NSCLC; 80.6 µM in the assay on DLD-1 colon; 45.3 µM in the assay on DMS 273 small cell lung; 34.7 µM with KM20L2 colon; above 100 µM with XF 498 CNS.
Turning to `Nn1c(N=Nc2c(O)[nH]c3c(Cl)cc(Cl)cc23)n[nH]c1=S`, the TGI in the assay on M19-MEL melanoma, in the assay on LXFL 529 NSCLC, with DLD-1 colon, in the assay on KM20L2 colon and in the assay with DMS 114 small cell lung was above 100 µM each time.
As to `CC1=CC(=O)N(c2c(C)cccc2Cl)C(C)N1` (stereo unspecified), the TGI in the assay with M19-MEL melanoma, in the assay with LXFL 529 NSCLC, in the assay with DLD-1 colon, in the assay on RXF-631 renal, in the assay on DMS 273 small cell lung and in the assay on KM20L2 colon was above 100 µM throughout. Moreover, the TGI in the assay on DMS 114 small cell lung was above 100 µM.
`C=CS(=O)(=O)CCN1CC1` registered a TGI in the assay with MDA-N above 10 µM.
As for `O=C(O)C1=C(C(=O)Nc2ccc(NC(=O)C3=C(C(=O)O)C4C=CC3C4)cc2)C2C=CC1C2`, the TGI in the assay on M19-MEL melanoma, in the assay with LXFL 529 NSCLC, in the assay with DLD-1 colon, in the assay on DMS 273 small cell lung, in the assay on KM20L2 colon and with XF 498 CNS was above 100 µM in each case. In the assay on DMS 114 small cell lung, this molecule yielded a TGI above 100 µM.
For `O=[N+]([O-])c1ccc(S(=O)(=O)Cc2ccccc2)c2nonc12`, the TGI in the assay on MDA-N is 40.9 µM.
In the case of `O=C1OC(c2ccccc2)=N/C1=C\c1cccc(F)c1`, in the assay on MDA-N, the TGI is above 100 µM.
For `O=C1C2Nc3ccccc3SC2C(=O)N1c1ccccc1C(F)(F)F` (stereo unspecified), the TGI with M19-MEL melanoma is above 100 µM; with LXFL 529 NSCLC it was above 100 µM; with DLD-1 colon, above 100 µM; in the assay with XF 498 CNS, 53.2 µM; in the assay on DMS 114 small cell lung, above 100 µM.
`N#CC1=C(Cl)NC(Cl)=C(C#N)C1c1c(Cl)cccc1Cl`: the TGI with LXFL 529 NSCLC was above 100 µM; in the assay on DLD-1 colon, 46.9 µM; in the assay with DMS 273 small cell lung, 34.5 µM; in the assay on KM20L2 colon, 76.9 µM; in the assay on XF 498 CNS, 35.5 µM; in the assay with DMS 114 small cell lung, 28.3 µM.
As to `c1ccc2c(c1)C1=NCCN1c1ccccc1-2`, the TGI in the assay with M19-MEL melanoma amounted to 11 µM; with LXFL 529 NSCLC it was 13 µM; with DLD-1 colon, 9.02 µM; in the assay on RXF-631 renal, 9.69 µM; in the assay on DMS 273 small cell lung, 4.88 µM; in the assay on KM20L2 colon it was 14.2 µM.
Take `O=C(Nc1ccn(CCI)c(=O)n1)c1ccccc1`: the TGI in the assay with M19-MEL melanoma, in the assay on LXFL 529 NSCLC, in the assay with DLD-1 colon, in the assay on DMS 273 small cell lung, in the assay on KM20L2 colon and in the assay on DMS 114 small cell lung was above 100 µM throughout.
For the molecule `Cc1ccccc1-n1c(C)nc(-c2ccccc2)cc1=O`, the TGI in the assay on M19-MEL melanoma, with LXFL 529 NSCLC, in the assay on DLD-1 colon, with RXF-631 renal, in the assay with DMS 273 small cell lung and in the assay with KM20L2 colon was above 100 µM in each case. The TGI with DMS 114 small cell lung is above 100 µM.
Regarding `C=C1[C@@H]([C@@]2(C)C=CC(=O)C(C)(C)[C@@H]2CC(=O)OC)CC[C@@]2(C)C(c3ccoc3)OC(=O)[C@H]3O[C@]132` (stereo partly specified), the TGI in the assay on MDA-N was above 100 µM.
For the molecule `O=C1c2nc3n(c2C(=O)c2c1nc1n2CCC1)CCC3`, the TGI worked out at 0.387 µM in the assay with M19-MEL melanoma; 21.5 µM with LXFL 529 NSCLC; 18.2 µM with DLD-1 colon; 12.7 µM in the assay on DMS 273 small cell lung; 11.4 µM in the assay on KM20L2 colon; 19.6 µM in the assay with XF 498 CNS. Moreover, the TGI in the assay with MDA-N was 3.47 µM; with DMS 114 small cell lung, 5.29 µM.
As to `COC(=O)C1=CC2OC1(C)CCC2=O` (stereo unspecified), the TGI with LXFL 529 NSCLC, in the assay with DLD-1 colon, with DMS 273 small cell lung, in the assay on KM20L2 colon and in the assay on XF 498 CNS was above 100 µM throughout.
For the molecule `O=C(NS(=O)(=O)c1ccccc1)C(Cc1ccccc1)C(Cc1ccccc1)C(=O)NS(=O)(=O)c1ccccc1` (stereo unspecified), the TGI in the assay with M19-MEL melanoma, in the assay on LXFL 529 NSCLC, in the assay on DLD-1 colon, with DMS 273 small cell lung, in the assay with KM20L2 colon and in the assay on DMS 114 small cell lung was above 100 µM throughout.
On to `CCCCCCC(/C=N/O)C(C)(O)CCC` (stereo unspecified), for which the TGI in the assay with M19-MEL melanoma, in the assay with LXFL 529 NSCLC, with DLD-1 colon, with DMS 273 small cell lung, in the assay on KM20L2 colon and in the assay on XF 498 CNS was above 100 µM in each case. The same molecule displayed a TGI in the assay with DMS 114 small cell lung above 100 µM.
As to `Cc1cccc2nc3cccc(C(=O)NCCN(C)C)c3nc12`, the TGI in the assay with M19-MEL melanoma came to 3.25 µM; in the assay on DLD-1 colon, 21.8 µM; with DMS 273 small cell lung, 4.17 µM; with DMS 114 small cell lung it was 3.13 µM.
In the case of `COC1=C2CC(C)CC(OC)C(O)C(C)/C=C(\C)C(OC(N)=O)C(OC)/C=C\C=C(/C)C(=O)NC(=C(/C=N/N3CCCCC3)C1=O)C2=O` (stereo unspecified), the TGI in the assay on M19-MEL melanoma was 19 µM; with LXFL 529 NSCLC, 24.1 µM; with DLD-1 colon, 23.4 µM; in the assay on RXF-631 renal it was 35.1 µM; in the assay with DMS 273 small cell lung, 27.6 µM; in the assay with KM20L2 colon it was 10.1 µM. Besides, the TGI in the assay on XF 498 CNS amounted to 19.9 µM.
As to `CCc1nc(N)nc(N)c1-c1ccc(Cl)c(N=CN(C)C)c1`, in the assay on MDA-N, the TGI is above 100 µM.
As for `C[C@H]1C(=O)CC[C@]2(C)CCC(C(C)(C)O)CC12O` (stereo partly specified), the TGI in the assay on LXFL 529 NSCLC, in the assay with DLD-1 colon, with RXF-631 renal, with DMS 273 small cell lung, in the assay on KM20L2 colon and in the assay with DMS 114 small cell lung was above 100 µM each time.
The molecule `CN1C(Cl)=NS(=O)(=O)c2ccccc21` gave a TGI with MDA-N above 100 µM.
On to `[Cl][Cd][Cl]`, for which the GI50 is 11.2 µM with M19-MEL melanoma; 13.3 µM in the assay with LXFL 529 NSCLC; above 58.6 µM with DLD-1 colon; 38.8 µM in the assay with RXF-631 renal; 15.1 µM in the assay with DMS 273 small cell lung; 23.4 µM in the assay with XF 498 CNS. Also, the GI50 in the assay with MDA-N is 4.61 µM and 8.24 µM; in the assay on DMS 114 small cell lung, 25.8 µM. Moreover, the TGI in the assay with M19-MEL melanoma was 24.1 µM; with LXFL 529 NSCLC, 28.4 µM; with RXF-631 renal, above 88.9 µM; in the assay with DMS 273 small cell lung it was 31.2 µM; with XF 498 CNS it was 43.1 µM; in the assay with MDA-N, 21.4 µM. Besides, the TGI in the assay on DMS 114 small cell lung is above 55 µM.
As for `CCC(Oc1ccc(OC)c2ccccc(=O)c12)C(=O)O` (stereo unspecified), the TGI in the assay with M19-MEL melanoma, in the assay on LXFL 529 NSCLC, in the assay with RXF-631 renal, in the assay with DMS 273 small cell lung and with DMS 114 small cell lung was above 100 µM throughout.
Consider `O=C(/C=C1/Nc2ccc([N+](=O)[O-])cc2NC1O)c1cccc([N+](=O)[O-])c1` (stereo unspecified), for which the TGI in the assay with M19-MEL melanoma was above 100 µM; with LXFL 529 NSCLC, above 100 µM; with DLD-1 colon, above 100 µM; in the assay on DMS 273 small cell lung, above 100 µM; with KM20L2 colon, 96.2 µM; in the assay with XF 498 CNS, above 100 µM. The molecule further came in with a TGI in the assay with DMS 114 small cell lung above 100 µM.
In the case of `CN1CC(=O)N(C)c2nc[nH]c2C1=O`, the TGI in the assay on M19-MEL melanoma, with LXFL 529 NSCLC, in the assay on DLD-1 colon, with RXF-631 renal, in the assay with DMS 273 small cell lung and with XF 498 CNS was above 100 µM throughout. Moreover, the TGI in the assay on DMS 114 small cell lung was above 100 µM.
In the assay on MDA-N, `COc1cc2c(c(OC3OC(CO)C(O)C(O)C3O)c1)C(=O)CC(c1ccc(O)cc1)O2` (stereo unspecified) gave a TGI above 100 µM.
On the same count and under the same terms, the figure for `Cc1cccc(Nc2cnc(N)nc2N)c1` is above 100 µM.

(Values after PubChem BioAssay (NCI).)
